Test results from patent US9193728B2, “Fused tetracyclic pyrido [4,3-B] indole and pyrido [3,4-B] indole derivatives and methods of use” (Medivation Technologies, Inc., priority 2010, dated 2015).

Key:
[1] = molecular target: T1, human recombinant serotonin (5-Hydroxytryptamine) 5-HT2A receptor (Homo sapiens, UniProt P28223); experiment: Serotonin 5-HT2A radioligand binding ([3H]Ketanserin); settings: for inhibition at 0.1 µM / Serotonin (0.1 μM) 5-HT2A, percentage inhibition of ligand binding: compound at 0.1 μM; for inhibition at 0.1 µM: read-out: Serotonin (0.1 μM) 5-HT2A, percentage inhibition of ligand binding
T1 construct: expressed in transfected cells; host or cells: CHO-K1
T1 sequence (P28223 whole entry): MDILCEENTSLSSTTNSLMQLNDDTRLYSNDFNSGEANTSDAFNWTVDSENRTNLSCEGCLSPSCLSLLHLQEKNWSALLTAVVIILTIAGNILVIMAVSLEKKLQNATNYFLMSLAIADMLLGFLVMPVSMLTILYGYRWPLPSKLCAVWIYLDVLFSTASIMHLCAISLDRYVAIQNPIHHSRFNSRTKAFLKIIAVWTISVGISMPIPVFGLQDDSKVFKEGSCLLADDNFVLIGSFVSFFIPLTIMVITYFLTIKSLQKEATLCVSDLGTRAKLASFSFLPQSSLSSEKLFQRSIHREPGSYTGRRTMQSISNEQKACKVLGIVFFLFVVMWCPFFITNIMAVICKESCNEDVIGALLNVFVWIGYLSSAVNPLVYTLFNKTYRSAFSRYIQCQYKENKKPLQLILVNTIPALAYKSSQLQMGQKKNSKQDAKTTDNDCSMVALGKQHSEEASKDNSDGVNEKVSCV
Procedure: To evaluate in radioligand binding assays the activity of compounds of the invention, human recombinant serotonin (5-Hydroxytryptamine) 5-HT2A receptor expressed in Chinese hamster ovary (CHO)-K1 cells (Bonhaus, D. et al, Br. J. Pharmacol. 115:622, 1995; Saucier, C. et al, J. Neurochem. 68:1998, 1997) in a 50 mM Tris-HCl buffer, pH 7.4, was used. Compounds of the invention were incubated with 0.5 nM [^3H]Ketanserin for 60 min. at 25° C. Non-specific binding was estimated in the presence of 1 μM Mianserin. Receptor proteins were filtered and washed, the filters were then counted to determine [^3H]Ketanserin specifically bound. Compounds were screened at 1 μM or lower, using 1% DMSO as vehicle. Biochemical assay results are presented as the percent inhibition of specific binding in Table 4.

[2] = molecular target: T2, human recombinant dopamine D2L receptor (Homo sapiens, UniProt P14416); experiment: Dopamine D2L radioligand binding ([3H]Spiperone); settings: compound at 1 μM; for inhibition at 1 µM: read-out: Dopamine (1 μM) D2L, percentage inhibition of ligand binding
T2 construct: expressed in transfected cells; host or cells: CHO
T2 sequence (P14416 whole entry): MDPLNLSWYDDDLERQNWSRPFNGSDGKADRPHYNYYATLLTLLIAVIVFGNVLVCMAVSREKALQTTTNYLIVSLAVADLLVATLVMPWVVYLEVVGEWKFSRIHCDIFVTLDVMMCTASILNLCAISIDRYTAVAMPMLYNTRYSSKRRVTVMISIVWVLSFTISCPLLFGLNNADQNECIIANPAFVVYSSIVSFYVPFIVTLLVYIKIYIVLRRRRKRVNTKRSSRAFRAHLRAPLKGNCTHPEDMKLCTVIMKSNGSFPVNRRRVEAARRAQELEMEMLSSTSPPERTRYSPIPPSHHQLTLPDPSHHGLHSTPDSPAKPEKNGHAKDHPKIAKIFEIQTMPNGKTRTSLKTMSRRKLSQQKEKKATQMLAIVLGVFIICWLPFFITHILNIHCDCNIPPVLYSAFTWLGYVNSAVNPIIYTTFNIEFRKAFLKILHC
Procedure: To evaluate in radioligand binding assays the activity of compounds of the invention, human recombinant dopamine D2L receptor expressed in Chinese hamster ovary (CHO) cells (Grandy, D. et al, Proc. Natl. Acad. Sci. USA. 86:9762, 1989; Hayes, G. et al, Mol. Endocrinol. 6:920, 1992) in a modified Tris-HCl buffer (50 mM Tris-HCl, pH 7.4, 1.4 mM Ascorbic Acid, 0.001% BSA, 150 mM NaCl) was used. Compounds of the invention were incubated with 0.16 nM [^3H]Spiperone for 120 min. at 25° C. Non-specific binding was estimated in the presence of 10 μM Haloperidol. Receptor proteins were filtered and washed, the filters were then counted to determine [^3H]Spiperone specifically bound. Compounds were screened at 1 μM or lower, using 1% DMSO as vehicle. Biochemical assay results are presented as the percent inhibition of specific binding in Table 3.

[3] = molecular target: T3, human recombinant histamine H1 receptor (Homo sapiens, UniProt P35367); experiment: Histamine H1 radioligand binding ([3H]Pyrilamine); settings: 1.2 nM [3H]Pyrilamine; for inhibition at 0.1 µM / Histamine Binding (0.1 μM) H1, percentage inhibition: compound at 0.1 μM; for inhibition at 0.1 µM: read-out: Histamine Binding (0.1 μM) H1, percentage inhibition
T3 construct: expressed in transfected cells; host or cells: CHO-K1
T3 sequence (P35367 whole entry): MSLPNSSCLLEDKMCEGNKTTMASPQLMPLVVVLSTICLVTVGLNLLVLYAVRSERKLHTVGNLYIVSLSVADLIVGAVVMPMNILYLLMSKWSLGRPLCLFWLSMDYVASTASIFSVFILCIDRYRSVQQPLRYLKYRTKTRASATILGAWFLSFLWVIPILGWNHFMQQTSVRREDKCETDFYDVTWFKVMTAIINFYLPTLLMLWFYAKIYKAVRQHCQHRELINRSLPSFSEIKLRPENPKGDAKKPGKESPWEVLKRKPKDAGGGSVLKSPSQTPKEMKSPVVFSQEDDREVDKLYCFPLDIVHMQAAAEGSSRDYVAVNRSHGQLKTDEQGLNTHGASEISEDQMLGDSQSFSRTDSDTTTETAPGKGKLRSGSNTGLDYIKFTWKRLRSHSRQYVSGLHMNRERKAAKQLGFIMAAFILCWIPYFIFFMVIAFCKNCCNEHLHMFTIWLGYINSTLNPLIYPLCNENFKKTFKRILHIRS
Procedure: To evaluate in radioligand binding assays the activity of compounds of the invention, human recombinant histamine H1 receptor expressed in Chinese hamster ovary (CHO) K1 cells (De Backer, M. et al, Biochem. Biophys. Res. Comm. 197(3):1601, 1993) in a modified Tris-HCl buffer (50 mM Tris-HCl, pH 7.4, 2 mM MgCl2, 100 mM NaCl, 250 mM Sucrose) was used. Compounds of the invention were incubated with 1.2 nM [^3H]Pyrilamine for 180 min. at 25° C. Non-specific binding was estimated in the presence of 1 μM Pyrilamine. Receptor proteins were filtered and washed, the filters were then counted to determine [^3H]Pyrilamine specifically bound. Compounds were screened at 1 μM or lower, using 1% DMSO as vehicle. Biochemical assay results are presented as the percent inhibition of specific binding in Table 2.

[4] = molecular target: T4, human recombinant serotonin (5-Hydroxytryptamine) 5-HT6 receptor (Homo sapiens, UniProt P50406); experiment: Serotonin 5-HT6 radioligand binding ([3H]LSD); settings: for inhibition at 0.1 µM / Serotonin (0.1 μM) 5-HT6, percentage inhibition of ligand binding: compound at 0.1 μM; for inhibition at 0.1 µM: read-out: Serotonin (0.1 μM) 5-HT6, percentage inhibition of ligand binding
T4 construct: expressed in transfected cells; host or cells: HeLa
T4 sequence (P50406 whole entry): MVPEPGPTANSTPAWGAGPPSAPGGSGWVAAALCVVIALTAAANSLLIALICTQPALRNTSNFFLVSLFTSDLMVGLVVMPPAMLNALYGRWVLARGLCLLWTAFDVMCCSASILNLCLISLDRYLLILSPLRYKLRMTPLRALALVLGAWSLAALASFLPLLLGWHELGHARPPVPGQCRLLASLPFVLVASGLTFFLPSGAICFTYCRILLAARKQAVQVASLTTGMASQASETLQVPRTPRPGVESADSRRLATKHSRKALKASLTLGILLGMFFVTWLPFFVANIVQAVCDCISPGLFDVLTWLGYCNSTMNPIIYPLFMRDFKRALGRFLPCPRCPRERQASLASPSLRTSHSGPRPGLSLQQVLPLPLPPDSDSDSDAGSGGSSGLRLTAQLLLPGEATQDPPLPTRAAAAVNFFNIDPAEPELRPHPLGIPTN
Procedure: To evaluate in radioligand binding assays the activity of compounds of the invention, human recombinant serotonin (5-Hydroxytryptamine) 5-HT6 receptor expressed in human HeLa cells (Monsma, F. Jr. et al, Mol. Pharmacol. 43:320, 1993) in a modified Tris-HCl buffer (50 mM Tris-HCl, pH 7.4, 150 mM NaCl, 2 mM Ascorbic Acid, 0.001% BSA) was used. Compounds of the invention were incubated with 1.5 nM [3H]Lysergic acid diethylamide (LSD) for 120 min. at 37° C. Non-specific binding was estimated in the presence of 5 μM Serotonin (5-HT). Receptor proteins were filtered and washed, the filters were then counted to determine [3H]LSD specifically bound. Compounds were screened at 1 μM or lower, using 1% DMSO as vehicle. Biochemical assay results are presented as the percent inhibition of specific binding in Table 4.

[5] = molecular target: T5, human recombinant serotonin (5-Hydroxytryptamine) 5-HT7 receptor (Homo sapiens, UniProt P34969); experiment: Serotonin 5-HT7 radioligand binding ([3H]LSD); settings: for inhibition at 0.1 µM / Serotonin (0.1 μM) 5-HT7, percentage inhibition of ligand binding: compound at 0.1 μM; for inhibition at 0.1 µM: read-out: Serotonin (0.1 μM) 5-HT7, percentage inhibition of ligand binding
T5 construct: expressed in transfected cells; host or cells: CHO
T5 sequence (P34969 whole entry): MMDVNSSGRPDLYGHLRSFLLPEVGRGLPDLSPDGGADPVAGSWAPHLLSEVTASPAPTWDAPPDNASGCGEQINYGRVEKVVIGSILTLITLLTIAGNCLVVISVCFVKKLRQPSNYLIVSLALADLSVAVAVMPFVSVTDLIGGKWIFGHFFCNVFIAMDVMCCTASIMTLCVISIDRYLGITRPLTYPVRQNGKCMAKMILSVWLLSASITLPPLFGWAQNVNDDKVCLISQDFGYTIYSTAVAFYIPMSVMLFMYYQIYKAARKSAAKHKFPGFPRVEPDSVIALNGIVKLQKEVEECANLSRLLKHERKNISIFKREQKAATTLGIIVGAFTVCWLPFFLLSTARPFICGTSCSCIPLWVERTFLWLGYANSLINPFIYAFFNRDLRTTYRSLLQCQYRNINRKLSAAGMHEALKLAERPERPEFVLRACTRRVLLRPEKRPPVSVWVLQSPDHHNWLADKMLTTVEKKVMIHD
Procedure: To evaluate in radioligand binding assays the activity of compounds of the invention, human recombinant serotonin (5-Hydroxytryptamine) 5-HT7 receptor expressed in Chinese hamster ovary (CHO) cells (Roth, B. et al, J. Pharmacol. Exp. Ther. 268:1403, 1994; Shen, Y. et al, J. Biol. Chem. 268:18200, 1993) in a modified Tris-HCl buffer (50 mM Tris-HCl, pH 7.4, 10 mM MgCl2, 0.5 mM EDTA) was used. Compounds of invention were incubated with 5.5 nM [^3H]Lysergic acid diethylamide (LSD) for 120 min. at 25° C. Non-specific binding was estimated in the presence of 10 μM Serotonin (5-HT). Receptor proteins were filtered and washed, the filters were then counted to determine [^3H]LSD specifically bound. Compounds were screened at 1 μM or lower, using 1% DMSO as vehicle. Biochemical assay results are presented as the percent inhibition of specific binding in Table 4.

[6] = molecular target: T6, human recombinant histamine H2 receptor (Homo sapiens, UniProt P25021); experiment: Histamine H2 radioligand binding ([125I]Aminopotentidine); settings: compound at 1 μM; 0.1 nM [125I]Aminopotentidine; read-out: Histamine Binding (1 μM) H2, percentage inhibition
T6 construct: expressed in transfected cells; host or cells: CHO-K1
T6 sequence (P25021 whole entry): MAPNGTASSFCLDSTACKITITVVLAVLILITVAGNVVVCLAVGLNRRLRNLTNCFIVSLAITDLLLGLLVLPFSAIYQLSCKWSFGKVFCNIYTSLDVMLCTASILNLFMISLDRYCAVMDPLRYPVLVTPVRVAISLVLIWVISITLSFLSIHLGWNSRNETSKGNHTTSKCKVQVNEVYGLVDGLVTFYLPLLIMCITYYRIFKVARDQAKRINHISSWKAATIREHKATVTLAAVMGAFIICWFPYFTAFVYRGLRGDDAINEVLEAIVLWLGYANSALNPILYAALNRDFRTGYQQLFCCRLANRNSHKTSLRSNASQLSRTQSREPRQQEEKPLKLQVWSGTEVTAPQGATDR
Procedure: To evaluate in radioligand binding assays the activity of compounds of the invention, human recombinant histamine H2 receptor expressed in Chinese hamster ovary (CHO) K1 cells (Ruat, M., Proc. Natl. Acad. Sci. USA. 87(5):1658, 1990) in a 50 mM Phosphate buffer, pH 7.4 was used. Compounds of the invention were incubated with 0.1 nM [^125I]Aminopotentidine for 120 min. at 25° C. Non-specific binding was estimated in the presence of 3 μM Tiotidine. Receptor proteins were filtered and washed, the filters were then counted to determine [^125I]Aminopotentidine specifically bound. Compounds were screened at 1 μM or lower, using 1% DMSO as vehicle. Biochemical assay results are presented as the percent inhibition of specific binding in Table 2.

Structure (SMILES) | inhibition at 0.1 µM [1] | inhibition at 1 µM [2] | inhibition at 0.1 µM [3] | inhibition at 0.1 µM [4] | inhibition at 0.1 µM [5] | inhibition at 1 µM ([1]; compound at 1 μM, read-out: Serotonin (1 μM) 5-HT2A, percentage inhibition of ligand binding) | inhibition at 1 µM ([3]; compound at 1 μM, read-out: Histamine Binding (1 μM) H1, percentage inhibition) | inhibition at 1 µM ([4]; compound at 1 μM, read-out: Serotonin (1 μM) 5-HT6, percentage inhibition of ligand binding) | inhibition at 1 µM [6] | inhibition at 1 µM ([5]; compound at 1 μM, read-out: Serotonin (1 μM) 5-HT7, percentage inhibition of ligand binding) | Serotonin (0.1 μM) 5-HT2A, percentage inhibition of ligand binding [1] | Dopamine (1 μM) D2L, percentage inhibition of ligand binding [2] | Histamine Binding (0.1 μM) H1, percentage inhibition [3] | Serotonin (0.1 μM) 5-HT6, percentage inhibition of ligand binding [4] | Serotonin (0.1 μM) 5-HT7, percentage inhibition of ligand binding [5]
Cc1cc2c3c(c1)c1c(n3C[C@](C)(c3ccncc3)O[C@H]2C)CCN(C)C1 [Compound 163] | 3% | 15% | 11% | 8% | -3% | – | – | – | – | – | – | – | – | – | –
Cc1cc2c3c(c1)c1c(n3CC(c3ccc(F)cc3)C2)CCN(C)C1 (stereo not drawn) [Compound 3] | 69% | 96% | 49% | 80% | – | 94% | 83% | 96% | 75% | 53% | – | – | – | – | –
Cc1cc2c3c(c1)c1c(n3C[C@@](C)(c3ccncc3)O[C@H]2C)CCN(C)C1 [Compound 162] | 7% | 11% | 25% | -8% | 5% | – | – | – | – | – | – | – | – | – | –
Cc1cc2c3c(c1)c1c(n3CC(C)(c3ccc(C)nc3)OC(C)C2)CCN(C)C1 (stereo not drawn) [Compound 160] | -4% | 7% | 0% | -10% | 14% | – | – | – | – | – | – | – | – | – | –
Cc1cc2c3c(c1)c1c(n3CC(C)(c3ccc(C)nc3)OC2C)CCN(C)C1 (stereo not drawn) [Compound 164] | – | – | – | – | – | – | – | – | – | – | 0% | 3% | −5% | −9% | −12%
Cc1cc2c3c(c1)c1c(n3CC(C)(c3ccncc3)OC(C)C2)CCN(C)C1 (stereo not drawn) [Compound 165] | 12% | 10% | 37% | 10% | -2% | – | – | – | – | – | – | – | – | – | –
Cc1cc2c3c(c1)c1c(n3CC(C)(c3ccc(C)nc3)OC2C)CCN(C)C1 (stereo not drawn) [Compound 161] | – | – | – | – | – | – | – | – | – | – | −2% | 10% | 13% | −8% | −8%
